Results published in patent publication US20260297085A1, “1 H-PYRROLO[2,3-B]PYRIDIN-4-YL]-2-OXOPYRROLIDINE-3-CARBONITRILE DERIVATIVES AS TYROSINE KINASE 2 (TYK2) INHIBITORS FOR THE TREATMENT OF INFLAMMATORY DISEASES” (BIOGEN MA INC., priority 2023, published 2026).
Counter-ions that a name gives are not always drawn.

Key:
[1] = target: T1, human TYK2 kinase domain (JH1) (Homo sapiens, UniProt P29597); test: JH1 biochemical assay for TYK2 (ADP-Glo kinase assay, recombinant JH1 catalytic domain, JAK3-974 peptide, 10 μM ATP)
T1 construct: recombinantly generated catalytic kinase (also known as JH1) domain of human JAK1, JAK2, JAK3 and TYK2
T1 sequence (P29597 897-1176 limits assumed): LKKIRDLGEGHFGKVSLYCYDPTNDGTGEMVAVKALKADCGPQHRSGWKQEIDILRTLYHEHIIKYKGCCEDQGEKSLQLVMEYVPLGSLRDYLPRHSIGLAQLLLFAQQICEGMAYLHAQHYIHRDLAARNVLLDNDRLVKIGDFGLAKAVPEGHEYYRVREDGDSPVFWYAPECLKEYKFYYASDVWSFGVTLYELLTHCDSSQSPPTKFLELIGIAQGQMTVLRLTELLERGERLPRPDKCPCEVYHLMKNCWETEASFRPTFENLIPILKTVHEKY
In short: (§1)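 Enzyme levels: JAK1 4 nM, JAK2 0.2 nM, JAK3 0.3 nM, TYK2 2 nM. Peptide substrate at 50 μM. Reactions ran 100 minutes; ADP formed was converted to luciferase luminescence after ATP depletion. Compounds tested from 10 μM or 1 μM top, 11-point 3-fold dilutions; IC50 from 4-parameter logistic fit of normalized percent activity.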

[2] = target: T2, human JAK1 kinase domain (JH1) (Homo sapiens, UniProt P23458); test: JH1 biochemical assay for JAK1 (ADP-Glo kinase assay, recombinant JH1 catalytic domain, JAK3-342 peptide, 35 μM ATP)
T2 construct: recombinantly generated catalytic kinase (also known as JH1) domain of human JAK1, JAK2, JAK3 and TYK2
T2 sequence (P23458 875-1153 limits assumed): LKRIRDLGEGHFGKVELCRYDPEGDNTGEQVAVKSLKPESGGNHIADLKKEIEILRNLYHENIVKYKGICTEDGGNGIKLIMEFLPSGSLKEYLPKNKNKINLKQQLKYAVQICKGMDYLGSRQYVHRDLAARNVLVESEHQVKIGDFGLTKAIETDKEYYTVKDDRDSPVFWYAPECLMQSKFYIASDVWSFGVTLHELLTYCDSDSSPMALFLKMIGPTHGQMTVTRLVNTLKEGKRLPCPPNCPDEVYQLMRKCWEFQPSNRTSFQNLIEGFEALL
In short: as §1

[3] = target: T3, human JAK2 kinase domain (JH1) (Homo sapiens, UniProt O60674); test: JH1 biochemical assay for JAK2 (ADP-Glo kinase assay, recombinant JH1 catalytic domain, JAK3-974 peptide, 15 μM ATP)
T3 construct: recombinantly generated catalytic kinase (also known as JH1) domain of human JAK1, JAK2, JAK3 and TYK2
T3 sequence (O60674 849-1124 limits assumed): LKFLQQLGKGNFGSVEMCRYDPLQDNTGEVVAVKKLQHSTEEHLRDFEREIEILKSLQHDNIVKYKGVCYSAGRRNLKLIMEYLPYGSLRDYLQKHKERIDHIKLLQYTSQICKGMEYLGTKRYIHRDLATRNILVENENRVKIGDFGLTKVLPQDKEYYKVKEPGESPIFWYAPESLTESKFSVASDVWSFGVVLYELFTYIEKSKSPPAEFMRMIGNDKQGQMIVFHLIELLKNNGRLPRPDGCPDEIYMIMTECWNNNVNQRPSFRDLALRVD
In short: as §1

[4] = target: T4, human JAK3 kinase domain (JH1) (Homo sapiens, UniProt P52333); test: JH1 biochemical assay for JAK3 (ADP-Glo kinase assay, recombinant JH1 catalytic domain, JAK3-974 peptide, 4 μM ATP)
T4 construct: recombinantly generated catalytic kinase (also known as JH1) domain of human JAK1, JAK2, JAK3 and TYK2
T4 sequence (P52333 822-1111 limits assumed): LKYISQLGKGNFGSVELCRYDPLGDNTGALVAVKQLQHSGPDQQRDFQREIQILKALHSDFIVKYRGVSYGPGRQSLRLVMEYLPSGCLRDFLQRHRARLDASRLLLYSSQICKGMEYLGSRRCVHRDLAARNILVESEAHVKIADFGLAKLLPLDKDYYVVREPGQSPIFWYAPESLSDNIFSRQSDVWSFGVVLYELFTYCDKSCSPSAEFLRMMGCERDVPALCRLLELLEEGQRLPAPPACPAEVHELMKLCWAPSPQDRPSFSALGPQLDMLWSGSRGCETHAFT
In short: as §1

Row | IC50 ([1]; JH1 kinase domain, ADP-Glo) [nM] | IC50 ([2]; JH1 kinase domain, ADP-Glo) [nM] | IC50 ([3]; JH1 kinase domain, ADP-Glo) [nM] | IC50 ([4]; JH1 kinase domain, ADP-Glo) [nM] | IC50 ([1]; TYK2 JH1, ADP-Glo) [nM] | IC50 ([2]; JAK1 JH1, ADP-Glo) [nM] | IC50 ([3]; JAK2 JH1, ADP-Glo) [nM] | IC50 ([4]; JAK3 JH1, ADP-Glo) [nM] | Compound
1 | 20 to 50 | 1000 to 5000 | 1000 to 5000 | 1000 to 5000 |  |  |  |  | C[C@@H]1CN(c2ccnn3cc(-c4ncc(C#N)s4)cc23)C(=O)[C@]1(C#N)C1CC1 [Example 117, 2-(4-((3R,4S)-3-cyano-3-cyclopropyl-4-methyl-2-oxopyrrolidin-1-yl)pyrrolo[1,2-b]pyridazin-6-yl)thiazole-5-carbonitrile trifluoroacetate]
2 |  |  |  |  | 20 to 50 | < 100 | > 10000 | 100 to 1000 | C[C@@H]1CN(c2nc(-c3cccc(F)n3)cn3nccc23)C(=O)[C@]1(C#N)C1CC1 [Example 255, (3R,4S)-3-cyclopropyl-1-(6-(6-fluoropyridin-2-yl)pyrazolo[1,5-a]pyrazin-4-yl)-4-methyl-2-oxopyrrolidine-3-carbonitrile trifluoroacetate]
3 |  |  |  |  | 50 to 100 | 1000 to 5000 | 1000 to 5000 | 1000 to 5000 | COc1cncc(-c2cn3ncc(F)c3c(N3C[C@@H](C)[C@@](C#N)(C4CC4)C3=O)n2)c1 [Example 223, (3R,4S)-3-cyclopropyl-1-(3-fluoro-6-(5-methoxypyridin-3-yl)pyrazolo[1,5-a]pyrazin-4-yl)-4-methyl-2-oxopyrrolidine-3-carbonitrile]
4 | 50 to 100 | 1000 to 5000 | 5000 to 10000 | 1000 to 5000 |  |  |  |  | Cc1ccc2nc(-c3cc4c(N5C[C@@H](C)[C@@](C#N)(C6CC6)C5=O)ccnn4c3)nn2c1 [Example 109, (3R,4S)-3-cyclopropyl-4-methyl-1-(6-(6-methyl-[1,2,4]triazolo[1,5-a]pyridin-2-yl)pyrrolo[1,2-b]pyridazin-4-yl)-2-oxopyrrolidine-3-carbonitrile trifluoroacetate]
5 | > 100 | > 10000 | > 10000 | > 10000 |  |  |  |  | C[C@H]1C[C@@](C#N)(C2CC2)C(=O)N1c1ccnn2cc(-c3cnn(C)c3)cc12 [Example 31, (3S,5S)-3-cyclopropyl-5-methyl-1-(6-(1-methyl-1H-pyrazol-4-yl)pyrrolo[1,2-b]pyridazin-4-yl)-2-oxopyrrolidine-3-carbonitrile]
6 | 20 to 50 | 100 to 1000 | 1000 to 5000 | 1000 to 5000 |  |  |  |  | C[C@@H]1CN(c2ccnn3cc(-c4ccnn4C)cc23)C(=O)[C@]1(C#N)C1CC1 [Example 49, (3R,4S)-3-cyclopropyl-4-methyl-1-(6-(1-methyl-1H-pyrazol-5-yl)pyrrolo[1,2-b]pyridazin-4-yl)-2-oxopyrrolidine-3-carbonitrile]
7 | > 100 | > 10000 | 5000 to 10000 | > 10000 |  |  |  |  | Cn1cc(-c2cc3c(N4CC[C@H](C5CC5)C4=O)ccnn3c2)cn1 (single isomer, unassigned) [Example 36]
8 | > 100 | 5000 to 10000 | > 10000 | 5000 to 10000 |  |  |  |  | CCc1ncccc1-c1cc2c(N3C[C@@H](C)[C@@](C#N)(C4CC4)C3=O)ccnn2c1 [Example 178, (3R,4S)-3-cyclopropyl-1-(6-(2-ethylpyridin-3-yl)pyrrolo[1,2-b]pyridazin-4-yl)-4-methyl-2-oxopyrrolidine-3-carbonitrile trifluoroacetate]
9 | 5 to 20 | 100 to 1000 | 100 to 1000 | 100 to 1000 |  |  |  |  | C[C@@H]1CN(c2ccnn3cc(-c4ccc(N(C)C(=O)OC(C)(C)C)nc4)cc23)C(=O)[C@]1(C#N)C1CC1 [Example 95, tert-butyl (5-(4-((3R,4S)-3-cyano-3-cyclopropyl-4-methyl-2-oxopyrrolidin-1-yl)pyrrolo[1,2-b]pyridazin-6-yl)pyridin-2-yl)(methyl)carbamate]
10 | 50 to 100 | 1000 to 5000 | 1000 to 5000 | 1000 to 5000 |  |  |  |  | C[C@@H]1CN(c2ccnn3cc(-c4cnc5n4CCCC5)cc23)C(=O)[C@]1(C#N)C1CC1 [Example 100, (3R,4S)-3-cyclopropyl-4-methyl-2-oxo-1-(6-(5,6,7,8-tetrahydroimidazo[1,2-a]pyridin-3-yl)pyrrolo[1,2-b]pyridazin-4-yl)pyrrolidine-3-carbonitrile trifluoroacetate]
11 | > 100 | 1000 to 5000 | 5000 to 10000 | 5000 to 10000 |  |  |  |  | COc1cccnc1-c1cc2c(N3C[C@@H](C)[C@@](C#N)(C4CC4)C3=O)ccnn2c1 [Example 146, (3R,4S)-3-cyclopropyl-1-(6-(3-methoxypyridin-2-yl)pyrrolo[1,2-b]pyridazin-4-yl)-4-methyl-2-oxopyrrolidine-3-carbonitrile trifluoroacetate]
12 |  |  |  |  | > 100 | > 10000 | > 10000 | > 10000 | C[C@@H]1CN(c2cc(-c3cnn(C)c3)cc3nccn23)C(=O)[C@]1(C#N)C1CC1 [Example 287, (3R,4S)-3-cyclopropyl-4-methyl-1-(7-(1-methyl-1H-pyrazol-4-yl)imidazo[1,2-a]pyridin-5-yl)-2-oxopyrrolidine-3-carbonitrile]
13 | > 100 | > 10000 | > 10000 | > 10000 |  |  |  |  | CC[C@H]1C[C@](C#N)(C2CC2)C(=O)N1c1ccnn2cc(-c3cnn(C)c3)cc12 [Example 32, (3R,5S)-3-cyclopropyl-5-ethyl-1-(6-(1-methyl-1H-pyrazol-4-yl)pyrrolo[1,2-b]pyridazin-4-yl)-2-oxopyrrolidine-3-carbonitrile]
14 |  |  |  |  | > 100 | > 10000 | > 10000 | > 10000 | C[C@@H]1CN(c2cccn3nc(-c4cnn(C)c4)cc23)C(=O)[C@]1(C#N)C1CC1 [Example 272, (3R,4S)-3-cyclopropyl-4-methyl-1-(2-(1-methyl-1H-pyrazol-4-yl)pyrazolo[1,5-a]pyridin-4-yl)-2-oxopyrrolidine-3-carbonitrile]
15 | 20 to 50 | 1000 to 5000 | 1000 to 5000 | 1000 to 5000 |  |  |  |  | C[C@@H]1CN(c2ccnn3cc(-c4cncc(C#N)n4)cc23)C(=O)[C@]1(C#N)C1CC1 [Example 133, 6-(4-((3R,4S)-3-cyano-3-cyclopropyl-4-methyl-2-oxopyrrolidin-1-yl)pyrrolo[1,2-b]pyridazin-6-yl)pyrazine-2-carbonitrile trifluoroacetate]
16 | 20 to 50 | 100 to 1000 | 100 to 1000 | 100 to 1000 |  |  |  |  | C[C@@H]1CN(c2ccnn3cc(-c4cccc(CC#N)n4)cc23)C(=O)[C@]1(C#N)C1CC1 [Example 125, (3R,4S)-1-(6-(6-(cyanomethyl)pyridin-2-yl)pyrrolo[1,2-b]pyridazin-4-yl)-3-cyclopropyl-4-methyl-2-oxopyrrolidine-3-carbonitrile trifluoroacetate]
17 |  |  |  |  | 50 to 100 | 100 to 1000 | 1000 to 5000 | 1000 to 5000 | Cc1cc(-c2cn3nccc3c(N3C[C@@H](C)[C@@](C#N)(C4CC4)C3=O)n2)ccn1 [Example 241, (3R,4S)-3-cyclopropyl-4-methyl-1-(6-(2-methylpyridin-4-yl)pyrazolo[1,5-a]pyrazin-4-yl)-2-oxopyrrolidine-3-carbonitrile trifluoroacetate]
18 | 50 to 100 | 1000 to 5000 | 1000 to 5000 | 1000 to 5000 |  |  |  |  | Cn1cc(-c2cc3c(N4CC[C@@](C)(C#N)C4=O)ccnn3c2)cn1 (single isomer, unassigned) [Example 38]
19 |  |  |  |  | > 100 | > 10000 | > 10000 | > 10000 | C[C@@H]1CN(c2nn(-c3cccc(=O)n3C)c3cnccc23)C(=O)[C@]1(C#N)C1CC1 [Example 279, (3R,4S)-3-cyclopropyl-4-methyl-1-(1-(1-methyl-6-oxo-1,6-dihydropyridin-2-yl)-1H-pyrazolo[3,4-c]pyridin-3-yl)-2-oxopyrrolidine-3-carbonitrile]
20 |  |  |  |  | 20 to 50 | 1000 to 5000 | 1000 to 5000 | 1000 to 5000 | C[C@@H]1CN(c2cc(-c3cnn(C(F)F)c3)cn3ncc(F)c23)C(=O)[C@]1(C#N)C1CC1 [Example 270, (3R,4S)-3-cyclopropyl-1-(6-(1-(difluoromethyl)-1H-pyrazol-4-yl)-3-fluoropyrazolo[1,5-a]pyridin-4-yl)-4-methyl-2-oxopyrrolidine-3-carbonitrile]
21 | > 100 | 1000 to 5000 | 100 to 1000 | 1000 to 5000 |  |  |  |  | CC[C@@H]1C[C@@](C#N)(C2CC2)C(=O)N1c1ccnn2cc(-c3cnn(C)c3)cc12 [Example 18, (3S,5R)-3-cyclopropyl-5-ethyl-1-(6-(1-methyl-1H-pyrazol-4-yl)pyrrolo[1,2-b]pyridazin-4-yl)-2-oxopyrrolidine-3-carbonitrile]
22 |  |  |  |  | > 100 | > 10000 | > 10000 | > 10000 | C[C@@H]1CN(c2nc(-c3ccc(C(F)(F)F)nc3)cn3nccc23)C(=O)[C@]1(C#N)C1CC1 [Example 238, (3R,4S)-3-cyclopropyl-4-methyl-2-oxo-1-(6-(6-(trifluoromethyl)pyridin-3-yl)pyrazolo[1,5-a]pyrazin-4-yl)pyrrolidine-3-carbonitrile trifluoroacetate]
